# Measured values from patent US10472347B2, “Aminopyrazine compounds with A2A antagonist properties” (Merck Sharp & Dohme Corp., priority 2014, dated 2019).
# Biological target: T1, human A2a receptor (Homo sapiens, UniProt P29274)
# T1 construct: purchased Perkin-Elmer RBHA2AM400UA; host or cells: HEK293 cells (membranes)
# Assay: A2a competition binding assay, Scintillation Proximity technology
# Conditions: membranes from HEK293 cells expressing human A2a receptor; Ki by Cheng-Prusoff equation
# Procedure, shortened: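 Membranes from HEK293 cells expressing human A2a, adenosine deaminase-treated, incubated 1 h at room temperature with compound (3000 to 0.15 nM) and 0.5 nM tritiated pyrazolotriazolopyrimidine radioligand on WGA SPA beads in Ca/Mg-free PBS + 10 mM MgCl2. Non-specific binding with 1 μM CGS15943; Ki by Cheng-Prusoff.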
# T1 sequence (P29274 whole entry): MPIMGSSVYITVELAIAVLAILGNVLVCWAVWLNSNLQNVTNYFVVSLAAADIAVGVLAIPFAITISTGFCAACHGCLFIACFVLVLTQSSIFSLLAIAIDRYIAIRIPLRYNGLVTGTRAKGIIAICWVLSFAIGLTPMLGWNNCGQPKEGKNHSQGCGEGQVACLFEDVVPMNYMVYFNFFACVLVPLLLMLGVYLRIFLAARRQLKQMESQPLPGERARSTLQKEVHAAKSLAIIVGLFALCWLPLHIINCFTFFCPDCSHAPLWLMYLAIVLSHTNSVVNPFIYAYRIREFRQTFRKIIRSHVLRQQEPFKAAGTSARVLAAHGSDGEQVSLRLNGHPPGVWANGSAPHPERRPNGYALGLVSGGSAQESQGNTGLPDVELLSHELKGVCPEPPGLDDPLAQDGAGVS
row,SMILES,Ki [nM]
1,"Cc1nc(C(=O)NCc2ncc(C(F)(F)F)cn2)c(N)nc1-c1ncco1 [Ex-126, 3-amino-6-methyl-5-(1,3-oxazol-2-yl)-N-{[5-(trifluoromethyl)pyrimidin-2-yl]methyl}pyrazine-2-carboxamide]",83
2,"Cc1nc(C(=O)NCc2nccn2C2CCC2)c(N)nc1-c1ncco1 [Ex-127, 3-amino-N-[(1-cyclobutyl-1H-imidazol-2-yl)methyl]-6-methyl-5-(1,3-oxazol-2-yl)pyrazine-2-carboxamide]",0.279
3,"Cc1nc(C(=O)NCC2CC2)c(N)nc1-c1ncco1 [Ex-128, 3-amino-N-(cyclopropylmethyl)-6-methyl-5-(1,3,-oxazol-2-yl)pyrazine-2-carboxamide]",12.5
4,"Cc1nc(C(=O)N[C@H]2c3ccccc3C[C@@H]2O)c(N)nc1-c1ncco1 [Ex-130, 3-amino-N-[(1S,2S)-2-hydroxy-2,3-dihydro-1H-inden-1-yl]-6-methyl-5-(1,3-oxazol-2-yl)pyrazine-2-carboxamide]",3.41
5,"Cc1nc(C(=O)N2CCC2c2ccccc2)c(N)nc1-c1ncco1 (centres unmarked) [Ex-131, 5-methyl-6-(1,3-oxazol-2-yl)-3-[(2-phenylazetidin-1-yl)carbonyl]pyrazin-2-amine]",10.3
6,"Cc1nc(C(=O)NCc2cccs2)c(N)nc1-c1ncco1 [Ex-132, 3-amino-6-methyl-5-(1,3-oxazol-2-yl)-N-(thiophen-2-ylmethyl)pyrazine-2-carboxamide]",0.357
7,"Cc1nc(C(=O)NCc2ccc(C3CC3)cc2)c(N)nc1-c1ncco1 [Ex-134, 3-amino-N-(4-cyclopropylbenzyl)-6-methyl-5-(1,3-oxazol-2-yl)pyrazine-2-carboxamide]",3.39
8,"Cc1cc(C)c(CNC(=O)c2nc(C)c(-c3ncco3)nc2N)c(C)c1 [Ex-136, 3-amino-6-methyl-5-(1,3-oxazol-2-yl)-N-(2,4,6-trimethylbenzyl)pyrazine-2-carboxamide]",0.267
9,"Cc1nc(C(=O)N[C@H]2CCc3ccccc32)c(N)nc1-c1ncco1 [Ex-138, 3-amino-N-[(1S)-2,3-dihydro-1H-inden-1-yl]-6-methyl-5-(1,3-oxazol-2-yl)pyrazine-2-carboxamide]",0.588
10,"Cc1nc(C(=O)N[C@@H]2CCc3ccccc32)c(N)nc1-c1ncco1 [Ex-140, 3-amino-N-[(1R)-2,3-dihydro-1H-inden-1-yl]-6-methyl-5-(1,3-oxazol-2-yl)pyrazine-2-carboxamide]",0.225
11,"Cc1nc(C(=O)NCc2cccn2C)c(N)nc1-c1ncco1 [Ex-141, 3-amino-6-methyl-N-[(1-methyl-1H-pyrrol-2-yl)methyl]-5-(1,3-oxazol-2-yl)pyrazine-2-carboxamide]",0.391
12,"COc1ccccc1CNC(=O)c1nc(C)c(-c2ncco2)nc1N [Ex-144, 3-amino-N-(2-methoxybenzyl)-6-methyl-5-(1,3-oxazol-2-yl)pyrazine-2-carboxamide]",0.382
13,"Cc1nc(C(=O)N[C@H]2COc3ccccc32)c(N)nc1-c1ncco1 [Ex-147, 3-amino-N-[(3R)-2,3-dihydro-1-benzofuran-3-yl]-6-methyl-5-(1,3-oxazol-2-yl)pyrazine-2-carboxamide]",0.601
14,"Cc1nc(C(=O)NCc2nc3ccccc3s2)c(N)nc1-c1ncco1 [Ex-149, 3-amino-N-(1,3-benzothiazol-2-ylmethyl)-6-methyl-5-(1,3-oxazol-2-yl)pyrazine-2-carboxamide]",0.855
15,"Cc1nc(C(=O)N2Cc3cncnc3C2)c(N)nc1-c1ncco1 [Ex-151, 3-(5,7-dihydro-6H-pyrrolo[3,4-d]pyrimidin-6-ylcarbonyl)-5-methyl-6-(1,3-oxazol-2-yl)pyrazin-2-amine]",4.58
16,"Cc1nc(C(=O)NCc2ccccc2O)c(N)nc1-c1ncco1 [Ex-153, 3-amino-N-(2-hydroxybenzyl)-6-methyl-5-(1,3-oxazol-2-yl)pyrazine-2-carboxamide]",0.141
17,"Cc1nc(C(=O)N[C@@H]2c3ccccc3C[C@@H]2O)c(N)nc1-c1ncco1 [Ex-156, 3-amino-N-[(1R,2S)-2-hydroxy-2,3-dihydro-1H-inden-1-yl]-6-methyl-5-(1,3-oxazol-2-yl)pyrazine-2-carboxamide]",68.9
18,"Cc1nc(C(=O)N[C@@H]2COc3ccccc32)c(N)nc1-c1ncco1 [Ex-157, 3-amino-N-[(3S)-2,3-dihydro-1-benzofuran-3-yl]-6-methyl-5-(1,3-oxazol-2-yl)pyrazine-2-carboxamide]",0.601
19,"Cc1nc(C(=O)N[C@@H]2c3ccccc3C[C@H]2O)c(N)nc1-c1ncco1 [Ex-159, 3-amino-N-[(1R,2R)-2-hydroxy-2,3-dihydro-1H-inden-1-yl]-6-methyl-5-(1,3-oxazol-2-yl)pyrazine-2-carboxamide]",1.2
20,"Cc1nc(C(=O)NCc2nnc3n2CCC3)c(N)nc1-c1ncco1 [Ex-160, 3-amino-N-(6,7-dihydro-5H-pyrrolo[2,1-c][1,2,4]triazol-3-ylmethyl)-6-methyl-5-(1,3-oxazol-2-yl)pyrazine-2-carboxamide]",264
21,"Cc1nc(C(=O)NCc2n[nH]c3c2CCCCC3)c(N)nc1-c1ncco1 [Ex-161, 3-amino-N-(1,4,5,6,7,8-hexahydrocyclohepta[c]pyrazol-3-ylmethyl)-6-methyl-5-(1,3-oxazol-2-yl)pyrazine-2-carboxamide]",0.293
22,"CCc1c(F)ccnc1CNC(=O)c1nc(C)c(-c2ncco2)nc1N [Ex-163, 3-amino-N-[(3-ethyl-4-fluoropyridin-2-yl)methyl]-6-methyl-5-(1,3-oxazol-2-yl)pyrazine-2-carboxamide]",0.197
23,"Cc1nc(C(=O)NCc2nc3ccccc3[nH]2)c(N)nc1-c1ncco1 [Ex-164, 3-amino-N-(1H-benzimidazol-2-ylmethyl)-6-methyl-5-(1,3-oxazol-2-yl)pyrazine-2-carboxamide]",1.29
24,"CCn1ncnc1CNC(=O)c1nc(C)c(-c2ncco2)nc1N [Ex-166, 3-amino-N-[(1-ethyl-1H-1,2,4-triazol-5-yl)methyl]-6-methyl-5-(1,3-oxazol-2-yl)pyrazine-2-carboxamide]",0.599
25,"CCOc1cccnc1CNC(=O)c1nc(C)c(-c2ncco2)nc1N [Ex-167, 3-amino-N-[(3-ethoxypyridin-2-yl)methyl]-6-methyl-5-(1,3-oxazol-2-yl)pyrazine-2-carboxamide]",0.158
26,"Cc1nc(C(=O)NCc2ncc(F)cc2C2CC2)c(N)nc1-c1ncco1 [Ex-169, 3-amino-N-[(3-cyclopropyl-5-fluoropyridin-2-yl)methyl]-6-methyl-5-(1,3-oxazol-2-yl)pyrazine-2-carboxamide]",0.375
27,"Cc1nc(C(=O)NCc2nn(C)cc2C2CC2)c(N)nc1-c1ncco1 [Ex-170, 3-amino-N-[(4-cyclopropyl-1-methyl-1H-pyrazol-3-yl)methyl]-6-methyl-5-(1,3-oxazol-2-yl)pyrazine-2-carboxmamide]",0.482
28,"Cc1nc(C(=O)NCc2nccnc2F)c(N)nc1-c1ncco1 [Ex-172, 3-amino-N-[(3-fluoropyrazin-2-yl)methyl]-6-methyl-5-(1,3-oxazol-2-yl)pyrazine-2-carboxamide]",3.05

# Now from value to molecule:
row,Ki [nM],SMILES
1,0.198,"Cc1nc(C(=O)NCc2cc(F)ccc2O)c(N)nc1-c1ncco1 [Ex-129, 3-amino-N-(5-fluoro-2-hydroxybenzyl)-6-methyl-5-(1,3-oxazol-2-yl)pyrazine-2-carboxamide]"
2,2.59,"Cc1nc(C(=O)NCc2ccc(C(C)C)cc2)c(N)nc1-c1ncco1 [Ex-133, 3-amino-6-methyl-N-[4-(1-methylethyl)benzyl]-5-(1,3-oxazol-2-yl)pyrazine-2-carboxamide]"
3,0.169,"Cc1cccc(CNC(=O)c2nc(C)c(-c3ncco3)nc2N)c1F [Ex-135, 3-amino-N-(2-fluoro-3-methylbenzyl)-6-methyl-5-(1,3-oxazol-2-yl)pyrazine-2-carboxamide]"
4,0.307,"Cc1cc(CNC(=O)c2nc(C)c(-c3ncco3)nc2N)ccc1F [Ex-137, 3-amino-N-(4-fluoro-3-methylbenzyl)-6-methyl-5-(1,3-oxazol-2-yl)pyrazine-2-carboxamide]"
5,3.03,"CCc1ccc(CNC(=O)c2nc(C)c(-c3ncco3)nc2N)cc1 [Ex-139, 3-amino-N-(4-ethylbenzyl)-6-methyl-5-(1,3-oxazol-2-yl)pyrazine-2-carboxamide]"
6,0.704,"Cc1nc(C(=O)NCc2ccc(C)n2C)c(N)nc1-c1ncco1 [Ex-142, 3-amino-N-[(1,5-dimethyl-1H-pyrrol-2-yl)methyl]-6-methyl-5-(1,3-oxazol-2-yl)pyrazine-2-carboxamide]"
7,1.72,"COc1cccc(CNC(=O)c2nc(C)c(-c3ncco3)nc2N)c1 [Ex-143, 3-amino-N-(3-methoxybenzyl)-6-methyl-5-(1,3-oxazol-2-yl)pyrazine-2-carboxamide]"
8,15.8,"COc1ccc(CNC(=O)c2nc(C)c(-c3ncco3)nc2N)cc1 [Ex-148, 3-amino-N-(4-methoxybenzyl)-6-methyl-5-(1,3-oxazol-2-yl)pyrazine-2-carboxamide]"
9,0.125,"Cc1ccc(O)c(CNC(=O)c2nc(C)c(-c3ncco3)nc2N)c1 [Ex-154, 3-amino-N-(2-hydroxy-5-methylbenzyl)-6-methyl-5-(1,3-oxazol-2-yl)pyrazine-2-carboxamide]"
10,13.9,"Cc1nc(C(=O)NCc2ccc(O)cc2)c(N)nc1-c1ncco1 [Ex-155, 3-amino-N-(4-hydroxybenzyl)-6-methyl-5-(1,3-oxazol-2-yl)pyrazine-2-carboxamide]"
11,1.97,"Cc1nc(C(=O)NCc2cccc(O)c2)c(N)nc1-c1ncco1 [Ex-158, 3-amino-N-(3-hydroxybenzyl)-6-methyl-5-(1,3-oxazol-2-yl)pyrazine-2-carboxamide]"
12,0.333,"Cc1nc(C(=O)NCc2nccc(F)c2C)c(N)nc1-c1ncco1 [Ex-162, 3-amino-N-[(4-fluoro-3-methylpyridin-2-yl)methyl]-6-methyl-5-(1,3-oxazol-2-yl)pyrazine-2-carboxamide]"
13,0.191,"CCOc1cccc(F)c1CNC(=O)c1nc(C)c(-c2ncco2)nc1N [Ex-173, 3-amino-N-(2-ethoxy-6-fluorobenzyl)-6-methyl-5-(1,3-oxazol-2-yl)pyrazine-2-carboxamide]"
